From patent publication US8680012B2, “4-phenyl-pyrane-3,5-diones,4-phenyl-thiopyrane-3,6-diones and cyclohexanetriones as novel herbicides” (Syngenta Crop Protection LLC, priority 2006, dated 2014)

Assays:
Format in all cases: in vivo
Avena fatua (AVEFA) [1] = assay: Example B post-emergence herbicidal activity, glasshouse pot test; conditions: 312 h, rate 250 g/ha, evaluated after 13 days, read-out: Post-emergence activity AVEFA (100=total damage to plant; 0=no damage to plant)
Method: (§1) Seeds of a variety of test species were sown in standard soil in pots. After cultivation for one day (pre-emergence) or after 8 days cultivation (post-emergence) under controlled conditions in a glasshouse (at 24/16° C., day/night; 14 hours light; 65% humidity), the plants were sprayed with an aqueous spray solution derived from the formulation of the technical active ingredient in acetone/water (50:50) solution containing 0.5% Tween 20 (polyoxyethelyene sorbitan monolaurate, CAS RN 9005-64-5). The test plants were then grown in a glasshouse under controlled conditions in a glasshouse (at 24/16° C., day/night; 14 hours light; 65% humidity) and watered twice daily. After 13 days for pre and post-emergence, the test was evaluated (100=total damage to plant; 0=no damage to plant).
(§2) Alopecurus myosuroides (ALOMY), Avena fatua (AVEFA), Setaria faberi (SETFA), Echinochloa crus-galli (ECHCG), Solanum nigrum (SOLNI) and Amaranthus retroflexus (AMARE)

[2] = tested on: Alopecurus myosuroides (ALOMY); assay: as above; conditions: 312 h, rate 250 g/ha, evaluated after 13 days, read-out: Post-emergence activity ALOMY (100=total damage to plant; 0=no damage to plant)
Method: as §1, §2

[3] = tested on: Amaranthus retroflexus (AMARE); assay: as above; conditions: 312 h, rate 250 g/ha, evaluated after 13 days, read-out: Post-emergence activity AMARE (100=total damage to plant; 0=no damage to plant)
Method: as §1, §2

[4] = tested on: Echinochloa crus-galli (ECHCG); assay: as above; conditions: 312 h, rate 250 g/ha, evaluated after 13 days, read-out: Post-emergence activity ECHCG (100=total damage to plant; 0=no damage to plant)
Method: as §1, §2

Setaria faberi (SETFA) [5] = assay: as above; conditions: 312 h, rate 250 g/ha, evaluated after 13 days, read-out: Post-emergence activity SETFA (100=total damage to plant; 0=no damage to plant)
Method: as §1, §2

Avena fatua (AVEFA) [6] = assay: Example B pre-emergence herbicidal activity, glasshouse pot test; conditions: 312 h, rate 250 g/ha, evaluated after 13 days, read-out: Pre-emergence activity AVEFA (100=total damage to plant; 0=no damage to plant)
Method: as §1, §2

[7] = tested on: Alopecurus myosuroides (ALOMY); assay: as above; conditions: 312 h, rate 250 g/ha, evaluated after 13 days, read-out: Pre-emergence activity ALOMY (100=total damage to plant; 0=no damage to plant)
Method: as §1, §2

[8] = tested on: Amaranthus retroflexus (AMARE); assay: as above; conditions: 312 h, rate 250 g/ha, evaluated after 13 days, read-out: Pre-emergence activity AMARE (100=total damage to plant; 0=no damage to plant)
Method: as §1, §2

[9] = tested on: Echinochloa crus-galli (ECHCG); assay: as above; conditions: 312 h, rate 250 g/ha, evaluated after 13 days, read-out: Pre-emergence activity ECHCG (100=total damage to plant; 0=no damage to plant)
Method: as §1, §2

Setaria faberi (SETFA) [10] = assay: as above; conditions: 312 h, rate 250 g/ha, evaluated after 13 days, read-out: Pre-emergence activity SETFA (100=total damage to plant; 0=no damage to plant)
Method: as §1, §2

| Structure (SMILES) | pest or weed control at 250 g/ha (Avena fatua (AVEFA) [1]) [%] | pest or weed control at 250 g/ha [2] [%] | pest or weed control at 250 g/ha [3] [%] | pest or weed control at 250 g/ha [4] [%] | pest or weed control at 250 g/ha (Setaria faberi (SETFA) [5]) [%] | pest or weed control at 250 g/ha (Avena fatua (AVEFA) [6]) [%] | pest or weed control at 250 g/ha [7] [%] | pest or weed control at 250 g/ha [8] [%] | pest or weed control at 250 g/ha [9] [%] | pest or weed control at 250 g/ha (Setaria faberi (SETFA) [10]) [%] |
| --- | --- | --- | --- | --- | --- | --- | --- | --- | --- | --- |
| CCc1ccc(-c2ccc(Cl)nc2)cc1C1=C(OC(C)=O)C(C)(C)OC(C)(C)C1=O [Compound D-22] | 100 | 90 | 0 | 100 | 100 | 50 | 60 | 0 | 100 | 100 |
| CCc1ccc(-c2ccc(Cl)cc2C#N)cc1C1=C(O)C(C)(C)OC(C)(C)C1=O [Compound A-100] | 90 | 90 | 0 | 100 | 100 | 90 | 20 | 60 | 80 | 100 |
| CCc1ccc(-c2ccc(C(F)F)cc2)cc1C1=C(O)C(C)(C)OC(C)(C)C1=O [Compound A-147] | 90 | 100 | 0 | 100 | 70 | 60 | 100 | 0 | 100 | 70 |
| CCc1ccc(-c2ccc(Cl)c(F)c2Cl)cc1C1=C(O)C(C)(C)OC(C)(C)C1=O [Compound A-138] | 100 | 100 | 60 | 100 | 100 | 90 | 90 | 20 | 100 | 100 |
| CCc1ccc(-c2ccc(Cl)c([N+](=O)[O-])c2)cc1C1=C(O)C(C)(C)OC(C)(C)C1=O [Compound A-136] | 100 | 80 | 0 | 100 | 70 | 80 | 20 | 0 | 90 | 30 |
| CCc1ccc(-c2ccc(Cl)nc2Cl)cc1C1=C(O)C(C)(C)OC(C)(C)C1=O [Compound A-75] | 90 | 90 | 0 | 100 | 100 | 30 | 30 | 0 | 90 | 90 |
| CCc1ccc(-c2ccc(Cl)c(Cl)c2)cc1C1=C(O)[C@H]2CC[C@H](O2)C1=O [Compound A-132] | 30 | 20 | 0 | 70 | 90 | 0 | 0 | 0 | 0 | 0 |
| CCc1ccc(-c2ccc(Cl)nc2)cc1C1=C(O)C(C)(C)OC(C)(C)C1=O [Compound A-76] | 70 | 90 | 0 | 100 | 100 | 50 | 60 | 0 | 70 | 100 |
| CCc1ccc(-c2ccc(Cl)c(Cl)c2Cl)cc1C1=C(O)C(C)(C)OC(C)(C)C1=O [Compound A-137] | 90 | 90 | 30 | 100 | 100 | 90 | 70 | 0 | 100 | 100 |
| CCc1ccc(-c2cc(Cl)c(Cl)cc2Cl)cc1C1=C(O)C(C)(C)OC(C)(C)C1=O [Compound A-144] | 100 | 100 | 40 | 100 | 100 | 80 | 100 | 30 | 90 | 100 |
| CCc1ccc(-c2ccc(Cl)cc2Cl)cc1C1=C(O)C(C)(C)OC(C)C1=O (single isomer, unassigned) [Compound A-71] | 30 | 30 | 100 | 100 | 100 | 20 | 40 | 0 | 80 | 100 |
| CCOC[C@]12CC[C@H](O1)C(=O)C(c1cc(-c3ccc(Cl)c(F)c3)ccc1CC)=C2O (single isomer, unassigned) [Compound A-126] | 90 | 70 | 0 | 100 | 100 | 90 | 30 | 0 | 80 | 100 |
| CCc1ccc(-c2ccc(Cl)nc2C)cc1C1=C(O)C(C)(C)OC(C)(C)C1=O [Compound A-77] | 60 | 70 | 0 | 100 | 90 | 0 | 10 | 0 | 0 | 20 |
| Cc1ccc(-c2cnc(N)nc2)cc1C1=C(O)C(C)(C)OC(C)(C)C1=O [Compound A-104] | – | – | – | – | – | 0 | 0 | 0 | 0 | 0 |
| CCc1ccc(-c2c(Cl)cc(Cl)cc2Cl)cc1C1=C(O)C(C)(C)OC(C)(C)C1=O [Compound A-74] | 0 | 0 | 70 | 90 | 90 | 0 | 20 | 10 | 80 | 50 |
| Cc1ccc(-c2cc[n+]([O-])cc2)cc1C1=C(O)C(C)(C)OC(C)(C)C1=O [Compound A-105] | – | – | – | – | – | 0 | 0 | 0 | 0 | 0 |
